Measured values published in PubChem BioAssay (NCI).
“And” between values parts separate entries of the source, which are not always exact repeats. Equal values may be shown once.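 Assay format: 96-well plates, 48-hour exposure. GI50: concentration for 50% inhibition of growth. TGI is the concentration that stops growth completely.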

Key:
Assay in all cases: inhibition of tumour cell growth, NCI panel, 48 h
A498 renal = system: A498 renal
A549 NSCLC = system: A549 NSCLC
HS 578T breast = system: HS 578T breast
LOX IMVI melanoma = system: LOX IMVI melanoma
MDA-MB-435 = system: MDA-MB-435
NCI/ADR-RES ovarian = system: NCI/ADR-RES ovarian
SF-539 CNS = system: SF-539 CNS
SK-MEL-2 melanoma = system: SK-MEL-2 melanoma
SN12C renal = system: SN12C renal
UACC-62 melanoma = system: UACC-62 melanoma

Compound | GI50 (A498 renal) [µM] | TGI (A498 renal) | GI50 (A549 NSCLC) [µM] | TGI (A549 NSCLC) | GI50 (HS 578T breast) [µM] | TGI (HS 578T breast) | GI50 (LOX IMVI melanoma) [µM] | TGI (LOX IMVI melanoma) | GI50 (MDA-MB-435) [µM] | TGI (MDA-MB-435) | GI50 (NCI/ADR-RES ovarian) [µM] | TGI (NCI/ADR-RES ovarian) | GI50 (SF-539 CNS) [µM] | TGI (SF-539 CNS) | GI50 (SK-MEL-2 melanoma) [µM] | TGI (SK-MEL-2 melanoma) | GI50 (SN12C renal) [µM] | TGI (SN12C renal) | GI50 (UACC-62 melanoma) [µM] | TGI (UACC-62 melanoma)
C=C1C[C@@H](O)[C@@H](Br)C(C)(C)[C@]12CCC(C)(Br)C(Cl)C2 (some centres not stated) | 18 | > 50 µM and 31.9 µM | 16.7 | > 50 µM and 37.7 µM | 29.9 | > 50 µM and 96.4 µM | 18.1 | > 50 µM and 35 µM | 18 | > 50 µM and 35.8 µM | 22.5 | > 50 µM and 56 µM | 16.9 | > 50 µM and 31.2 µM | 16.5 | > 50 µM and 30.4 µM | 16.5 | > 50 µM and 31.3 µM | 15.6 | > 50 µM and 29.3 µM
CCCCCCCCCCCCNC(=O)N[C@H](C(=O)N[C@H]1/C=C/CCNC(=O)/C=C/[C@H](C)NC1=O)C(C)C | 0.0649 | 0.362 µM | 0.262 | 9.07 µM | 0.333 | 24 µM | 0.113 | 0.355 µM | 0.0316 | 0.286 µM | > 100 | > 100 µM | 0.0805 | 0.263 µM | 0.207 | 0.627 µM | 0.184 | 0.591 µM | 0.0447 | 0.168 µM
C[C@]12CCCN1CC1=NNC(=O)c3cc(F)cc4[nH]c2c1c34 | 13.9 | 34.3 µM | 22.4 | > 100 µM | 11.8 | 62.5 µM | 7.64 | 60.3 µM | 23.7 | 80.6 µM | 20 | 71.8 µM | 17.6 | 57.7 µM | 22.3 | 52.4 µM | 14.3 | 79.1 µM | 12.7 | 28.3 µM
CC(=O)NC(CS)C(=O)O (configuration not stated) |  | 18500 µM | > 100 | > 100 µM and 69600 µM | > 100 | > 100 µM and 87200 µM |  | > 100 µM | > 100 | > 100 µM and 61900 µM | > 100 | > 100 µM and 81500 µM | > 100 | > 100 µM | > 100 | > 100 µM and 66300 µM | > 100 | > 100 µM | > 100 | > 100 µM
O=C(O)c1ccc(NCc2nc3ccccc3[nH]2)cc1 |  | > 100 µM | > 100 | > 100 µM | > 100 | > 100 µM | > 100 | > 100 µM | > 100 | > 100 µM | > 100 | > 100 µM | > 100 | > 100 µM | > 100 | > 100 µM | > 100 | > 100 µM | > 100 | > 100 µM
Cc1cc(O[C@@H]2O[C@@H](C)[C@H](O)[C@@H](O)[C@H]2O)c2c3c(c(O[C@@H]4O[C@@H](C)[C@H](O)[C@@H](O)[C@H]4O)cc2c1)C(=O)c1c(O)cccc1C3=O | > 30 | > 30 µM | > 30 | > 30 µM | > 30 | > 30 µM | > 30 | > 30 µM | > 30 | > 30 µM | > 30 | > 30 µM | > 30 | > 30 µM | > 30 | > 30 µM | > 30 | > 30 µM | > 30 | > 30 µM
O=C(NCCCl)NCCN1c2nc3ccccc3cc2Sc2cc3ccccc3nc21 | 4.58 | 24.7 µM | 4.64 | 23.1 µM | 0.962 | 9.57 µM | 2.36 | 14.6 µM | 1.57 | 11.1 µM | 1.61 | 13 µM | 3.14 | 17.7 µM | 2.21 | 8.53 µM | 3.04 | > 47.6 µM | 1.62 | 18.2 µM
COc1ccc2nc3cc(Cl)ccc3c(NCCNCC(O)CO)c2c1 (configuration not stated) | 0.245 | 2.64 µM | 3.33 | 14.1 µM | 3.75 | 21.1 µM | 0.5 | 2.35 µM | 1.44 | 4.61 µM | 16.2 | 36.1 µM | 1.23 | 9.14 µM | 2.01 | 6.97 µM | 0.946 | 9.94 µM | 1.55 | 4.01 µM
CC1NC(C(=O)O)Cc2cc(O)c(O)cc21 (configuration not stated) |  | > 100 µM |  | > 100 µM |  | > 100 µM |  | > 100 µM |  | > 100 µM |  | > 100 µM |  | > 100 µM |  | > 100 µM |  | > 100 µM |  | > 100 µM
